In PubChem BioAssay (NCI):
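How tested: cells in 96-well plates exposed to compound for 48 hours at five concentrations. Here, GI50 denotes the concentration required for 50% inhibition of growth. TGI is the concentration that stops growth completely.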

Tests used:
Test in all cases: inhibition of tumour cell growth, NCI panel, 48 h
MDA-MB-435 = system: MDA-MB-435
LOX IMVI melanoma = system: LOX IMVI melanoma
UACC-257 melanoma = system: UACC-257 melanoma
COLO 205 colon = system: COLO 205 colon
EKVX NSCLC = system: EKVX NSCLC
SNB-75 CNS = system: SNB-75 CNS
SK-MEL-2 melanoma = system: SK-MEL-2 melanoma
SF-295 CNS = system: SF-295 CNS
MCF7 breast = system: MCF7 breast
MDA-MB-468 breast = system: MDA-MB-468 breast
UO-31 renal = system: UO-31 renal
786-0 renal = system: 786-0 renal
NCI-H522 lung = system: NCI-H522 lung
SK-MEL-28 melanoma = system: SK-MEL-28 melanoma
SW-620 colon = system: SW-620 colon
M14 melanoma = system: M14 melanoma
SN12C renal = system: SN12C renal
SNB-19 CNS = system: SNB-19 CNS
PC-3 prostate = system: PC-3 prostate
OVCAR-5 ovarian = system: OVCAR-5 ovarian
HS 578T breast = system: HS 578T breast
NCI-H460 lung = system: NCI-H460 lung
SK-MEL-5 melanoma = system: SK-MEL-5 melanoma
HCC-2998 colon = system: HCC-2998 colon
HOP-92 NSCLC = system: HOP-92 NSCLC
DU-145 prostate = system: DU-145 prostate
HCT-116 colon = system: HCT-116 colon
NCI-H226 lung = system: NCI-H226 lung
SF-268 CNS = system: SF-268 CNS
MOLT-4 leukemia = system: MOLT-4 leukemia
HT29 colon = system: HT29 colon
HOP-62 NSCLC = system: HOP-62 NSCLC
BT-549 breast = system: BT-549 breast
SR leukemia = system: SR leukemia
RXF 393 renal = system: RXF 393 renal
IGROV1 ovarian = system: IGROV1 ovarian
SF-539 CNS = system: SF-539 CNS
MDA-MB-231 breast = system: MDA-MB-231 breast
T-47D breast = system: T-47D breast
OVCAR-3 ovarian = system: OVCAR-3 ovarian
CCRF-CEM leukemia = system: CCRF-CEM leukemia
TK-10 renal = system: TK-10 renal
HCT-15 colon = system: HCT-15 colon
OVCAR-4 ovarian = system: OVCAR-4 ovarian
RPMI-8226 leukemia = system: RPMI-8226 leukemia
HL-60(TB) leukemia = system: HL-60(TB) leukemia
UACC-62 melanoma = system: UACC-62 melanoma
A549 NSCLC = system: A549 NSCLC
KM12 colon = system: KM12 colon
CAKI-1 renal = system: CAKI-1 renal
K-562 leukemia = system: K-562 leukemia
MALME-3M melanoma = system: MALME-3M melanoma
NCI-H23 lung = system: NCI-H23 lung
A498 renal = system: A498 renal
ACHN renal = system: ACHN renal
U251 CNS = system: U251 CNS
SK-OV-3 ovarian = system: SK-OV-3 ovarian
OVCAR-8 ovarian = system: OVCAR-8 ovarian

In the case of `O=C1Nc2cc(Cl)ccc2/C1=C/c1cccc(OCc2ccccn2)c1`, the GI50 (MDA-MB-435) was 1920 nM, the TGI (MDA-MB-435) was 4.25 µM and the GI50 (LOX IMVI melanoma) was 2060 nM. For the same compound, the TGI (LOX IMVI melanoma) was 4.92 µM, the GI50 (UACC-257 melanoma) was 7.63 µM and the TGI (UACC-257 melanoma) was over 100 µM. The GI50 (COLO 205 colon) was 10.5 µM, the TGI (COLO 205 colon) was 22.2 µM and the GI50 (EKVX NSCLC) was 5.41 µM. It also gave a TGI (EKVX NSCLC) of 67.4 µM, a GI50 (SNB-75 CNS) of 3.05 µM and a TGI (SNB-75 CNS) of 38.8 µM. For the same compound, the GI50 (SK-MEL-2 melanoma) was 2900 nM, the TGI (SK-MEL-2 melanoma) was 9.3 µM and the GI50 (SF-295 CNS) was 5.69 µM. For the same compound, the TGI (SF-295 CNS) was 25 µM, the GI50 (MCF7 breast) was 1930 nM and the TGI (MCF7 breast) was 11.4 µM. It also gave a GI50 (MDA-MB-468 breast) of 2540 nM, a TGI (MDA-MB-468 breast) of 9.08 µM and a GI50 (UO-31 renal) of 3.03 µM. For the same compound, the TGI (UO-31 renal) was 25 µM, the GI50 (786-0 renal) was 14 µM and the TGI (786-0 renal) was 28.9 µM. The GI50 (NCI-H522 lung) was 2430 nM, the TGI (NCI-H522 lung) was 6.63 µM and the GI50 (SK-MEL-28 melanoma) was 5.66 µM. For the same compound, the TGI (SK-MEL-28 melanoma) was 32.3 µM, the GI50 (SW-620 colon) was 3.1 µM and the TGI (SW-620 colon) was 14.3 µM. It also gave a GI50 (M14 melanoma) of 4.43 µM, a TGI (M14 melanoma) of 16.8 µM and a GI50 (SN12C renal) of 6.38 µM. It also gave a TGI (SN12C renal) of 26.1 µM, a GI50 (SNB-19 CNS) of 11 µM and a TGI (SNB-19 CNS) of 27.8 µM. For the same compound, the GI50 (PC-3 prostate) was 5.52 µM, the TGI (PC-3 prostate) was over 100 µM and the GI50 (OVCAR-5 ovarian) was 7.62 µM. The TGI (OVCAR-5 ovarian) was 26.8 µM, the GI50 (HS 578T breast) was 2010 nM and the TGI (HS 578T breast) was 6.72 µM. For the same compound, the GI50 (NCI-H460 lung) was 3.15 µM, the TGI (NCI-H460 lung) was 12.3 µM and the GI50 (SK-MEL-5 melanoma) was 2810 nM. For the same compound, the TGI (SK-MEL-5 melanoma) was 13.4 µM, the GI50 (HCC-2998 colon) was 11.4 µM and the TGI (HCC-2998 colon) was 26.2 µM. For the same compound, the GI50 (HOP-92 NSCLC) was 1850 nM, the TGI (HOP-92 NSCLC) was 8.15 µM and the GI50 (DU-145 prostate) was 10.7 µM. It also gave a TGI (DU-145 prostate) of over 100 µM, a GI50 (HCT-116 colon) of 3.07 µM and a TGI (HCT-116 colon) of 10.5 µM. The GI50 (NCI-H226 lung) was 11.3 µM, the TGI (NCI-H226 lung) was 70.4 µM and the GI50 (SF-268 CNS) was 4.82 µM. The TGI (SF-268 CNS) was over 100 µM, the GI50 (MOLT-4 leukemia) was 3.02 µM and the TGI (MOLT-4 leukemia) was 11.3 µM. It also gave a GI50 (HT29 colon) of 4.47 µM, a TGI (HT29 colon) of 19.4 µM and a GI50 (HOP-62 NSCLC) of 6.95 µM. It also gave a TGI (HOP-62 NSCLC) of 25 µM, a GI50 (BT-549 breast) of 3.92 µM and a TGI (BT-549 breast) of 16.5 µM. For the same compound, the GI50 (SR leukemia) was 2580 nM, the TGI (SR leukemia) was 10.3 µM and the GI50 (RXF 393 renal) was 3.08 µM. For the same compound, the TGI (RXF 393 renal) was 14.5 µM, the GI50 (IGROV1 ovarian) was 3.89 µM and the TGI (IGROV1 ovarian) was 22.9 µM. For the same compound, the GI50 (SF-539 CNS) was 2630 nM, the TGI (SF-539 CNS) was 8.05 µM and the GI50 (MDA-MB-231 breast) was 2460 nM. For the same compound, the TGI (MDA-MB-231 breast) was 9.13 µM, the GI50 (T-47D breast) was 3.01 µM and the TGI (T-47D breast) was 22.6 µM. The GI50 (OVCAR-3 ovarian) was 3.33 µM, the TGI (OVCAR-3 ovarian) was 16.2 µM and the GI50 (CCRF-CEM leukemia) was 3.1 µM. The TGI (CCRF-CEM leukemia) was over 100 µM, the GI50 (TK-10 renal) was 15.4 µM and the TGI (TK-10 renal) was 34.7 µM. For the same compound, the GI50 (HCT-15 colon) was 2710 nM, the TGI (HCT-15 colon) was 16.1 µM and the GI50 (OVCAR-4 ovarian) was 5.73 µM. It also gave a TGI (OVCAR-4 ovarian) of 35.5 µM, a GI50 (RPMI-8226 leukemia) of 2930 nM and a TGI (RPMI-8226 leukemia) of 40.3 µM. For the same compound, the GI50 (HL-60(TB) leukemia) was 2130 nM, the TGI (HL-60(TB) leukemia) was 5.1 µM and the GI50 (UACC-62 melanoma) was 2700 nM. It also gave a TGI (UACC-62 melanoma) of 13.9 µM, a GI50 (A549 NSCLC) of 13 µM and a TGI (A549 NSCLC) of 62.2 µM. It also gave a GI50 (KM12 colon) of 3.77 µM, a TGI (KM12 colon) of 87.4 µM and a GI50 (CAKI-1 renal) of 2730 nM. For the same compound, the TGI (CAKI-1 renal) was 14.1 µM, the GI50 (K-562 leukemia) was 2820 nM and the TGI (K-562 leukemia) was over 100 µM. For the same compound, the GI50 (MALME-3M melanoma) was 4.23 µM, the TGI (MALME-3M melanoma) was 46.6 µM and the GI50 (NCI-H23 lung) was 3.39 µM. For the same compound, the TGI (NCI-H23 lung) was 16 µM, the GI50 (A498 renal) was 22.1 µM and the TGI (A498 renal) was 76.9 µM. It also gave a GI50 (ACHN renal) of 6.07 µM, a TGI (ACHN renal) of 19.9 µM and a GI50 (U251 CNS) of 4.21 µM. For the same compound, the TGI (U251 CNS) was 15.4 µM, the GI50 (SK-OV-3 ovarian) was 10.3 µM and the TGI (SK-OV-3 ovarian) was 26.8 µM. It also gave a GI50 (OVCAR-8 ovarian) of 3.79 µM and a TGI (OVCAR-8 ovarian) of 16.3 µM.
